We go through 62 compounds from BindingDB's records for doi:10.1016/j.chembiol.2016.06.016 (Massachusetts Institute of Technology, 2016).

SMILES strings stand for the structures.

For test [1], the target named is Cytochrome b (Homo sapiens, UniProt P00156). The experiment in a line: Cytochrome b Enzyme Assay. The note with it: pH 7.4; 25 °C. The method, then: (§1) Reaction plates were incubated at room temperature for 10 min before reading absorbance at 550 nm. Absolute IC50 values were calculated in GraphPad Prism 6.0.
Test [2] has as its target T1, Cytochrome b (Candida albicans, UniProt I2BJW5).
T1 sequence (I2BJW5 whole entry): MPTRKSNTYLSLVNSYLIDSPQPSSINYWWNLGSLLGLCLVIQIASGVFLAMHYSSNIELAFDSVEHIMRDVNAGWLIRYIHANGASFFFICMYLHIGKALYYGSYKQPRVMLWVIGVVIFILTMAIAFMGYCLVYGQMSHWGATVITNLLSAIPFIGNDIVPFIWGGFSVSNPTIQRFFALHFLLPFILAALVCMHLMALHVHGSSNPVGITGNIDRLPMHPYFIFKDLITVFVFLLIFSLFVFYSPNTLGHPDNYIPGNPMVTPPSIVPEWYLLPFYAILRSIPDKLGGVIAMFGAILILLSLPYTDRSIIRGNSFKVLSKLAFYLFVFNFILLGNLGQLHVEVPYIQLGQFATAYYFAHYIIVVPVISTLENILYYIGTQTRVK
Kind of test: Cytochrome b Enzyme Assay. Conditions: pH 7.4; 25 °C. Here is the method:
as §1

Cytochrome b (Homo sapiens, UniProt P00156), sequence (P00156 whole entry): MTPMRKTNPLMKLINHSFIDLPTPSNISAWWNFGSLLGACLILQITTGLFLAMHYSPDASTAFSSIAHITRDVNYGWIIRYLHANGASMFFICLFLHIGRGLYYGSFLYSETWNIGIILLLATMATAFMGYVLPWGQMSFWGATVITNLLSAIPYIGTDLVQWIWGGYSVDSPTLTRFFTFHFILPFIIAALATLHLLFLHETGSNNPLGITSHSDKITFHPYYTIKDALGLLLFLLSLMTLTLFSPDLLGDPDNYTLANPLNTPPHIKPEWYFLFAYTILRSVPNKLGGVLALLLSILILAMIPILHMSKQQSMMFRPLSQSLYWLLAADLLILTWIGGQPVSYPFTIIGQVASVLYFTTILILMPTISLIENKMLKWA

The IC50 is the midpoint of a concentration-inhibition curve. A high value points to weaker potency. For `COC(=O)Cn1nc(-c2cccc(C(F)(F)F)c2)c2ccccc21` [Inz-10], the IC50 in test [1] came out at 8.65 µM; in test [2], 1.06 µM.
As to `CCCCCCC1C(=O)O[C@H](C)[C@H](NC(=O)c2cccc(NC=O)c2O)C(=O)O[C@@H](C)[C@@H]1OC(=O)CC(C)C` (stereo partly drawn) [[(2R,3S,6S,7R)-3-[(3-formamido-2-hydroxybenzoyl)amino]-8-hexyl-2,6-dimethyl-4,9-dioxo-1,5-dioxonan-7-yl] 3-methylbutanoate], the IC50 worked out at 0.007 µM in test [1] and 0.005 µM in test [2].
For the compound `Cc1cccc2c(-c3cc(OCCCC4CCCCC4)ccc3F)nn(Cc3nnn(C)n3)c12` [Inz-84], the IC50 in test [1] came to 2.92 µM; in test [2] it was 0.154 µM.
`CC(=O)Nc1ccc2c(-c3cc(C(F)(F)F)ccc3F)nn(Cc3cnccn3)c2c1` [Inz-101]: the IC50 in test [1] and in test [2] was over 64 µM in each case.
For `COC(=O)Cn1nc(-c2ccccc2)c2ccccc21` [Inz-1], the figures for the IC50 in test [1] and in test [2] were 45.3 µM and 8.09 µM, respectively.
In the case of `c1ccc(-c2nn(Cc3cnccn3)c3ccccc23)cc1` [Inz-37], the IC50 in test [1] was over 64 µM; in test [2], 5.42 µM.
Consider `COC(=O)Cn1nc(-c2cccc(CCc3ccccc3)c2)c2ccccc21` [Inz-45], for which the IC50 in test [1] came out at 1.17 µM; in test [2], 0.0663 µM.
As to `COC(=O)CNc1ccccc1Oc1ccccc1` [Inz-86], the IC50 in test [1] and in test [2] was over 64 µM each time.
Take `c1ccc(-c2nn(Cc3nn[nH]n3)c3ccccc23)cc1` [Inz-33]: the IC50 in test [1] and in test [2] was over 64 µM each time.
On to `COC(=O)Cn1nc(-c2cccc(OCCC(C)(C)C)c2)c2ccccc21` [Inz-74], for which the IC50 in test [1] was found to be 4.72 µM; in test [2], 0.657 µM.
On to `O=C1C(=O)c2ccccc2C(O)=C1C1CCC(c2ccc(Cl)cc2)CC1` (centres undefined) [3-[4-(4-chlorophenyl)cyclohexyl]-4-hydroxynaphthalene-1,2-dione], for which the IC50 in test [1] worked out at 1.88 µM; in test [2], 3.79 µM.
Consider `c1ccc(-c2nn(Cc3nnco3)c3ccccc23)cc1` [Inz-72], for which the results for the IC50 in test [1] and in test [2] were over 64 µM and 17.9 µM, respectively.
On to `N#Cc1cccc2c(-c3cc(C(F)(F)F)ccc3F)nn(Cc3cnccn3)c12` [Inz-96], for which the values for the IC50 in test [1] and in test [2] were over 64 µM and 22.7 µM, respectively.
Take `c1ccc(-c2nn(Cc3cncs3)c3ccccc23)cc1` [Inz-29]: the IC50 in test [1] and in test [2] was over 64 µM throughout.
On to `Cn1nnc(Cn2nc(-c3cc(OCCCC4CCCCC4)ccc3F)c3ccccc32)n1` [Inz-82], for which the IC50 in test [1] stood at 12.3 µM; in test [2], 0.614 µM.
`COC(=O)Cn1nc(-c2cccc(OCc3ccccc3)c2)c2ccccc21` [Inz-42]: the results for the IC50 in test [1] and in test [2] were over 64 µM and 7.24 µM, respectively.
As to `COC(=O)Cn1nc(-c2c(C)cccc2C)c2ccccc21` [Inz-58], the IC50 in test [1] and in test [2] was over 64 µM each time.
For the compound `CN(O)C(=O)Cn1nc(-c2ccccc2)c2ccccc21` [Inz-87], the IC50 in test [1] and in test [2] was over 64 µM throughout.
`COC(=O)Cn1nc(-c2cccc(OCCC3CCCCC3)c2)c2ccccc21` [Inz-64]: the IC50 in test [1] came out at 3.23 µM; in test [2], 0.3 µM.
Regarding `COC(=O)Cn1nc(-c2cc(OCCCC3CCCCC3)ccc2F)c2cccc(C)c21` [Inz-80], the IC50 in test [1] is 0.79 µM; in test [2], 0.0388 µM.
`c1ccc(-c2nn(Cc3ncon3)c3ccccc23)cc1` [Inz-78]: the concentration for half-maximal inhibition (IC50) is over 64 µM in test [1] and 14.8 µM in test [2].
As for `COC(=O)Cn1nc(-c2ccccc2Cl)c2ccccc21` [Inz-18], the IC50 in test [1] is over 64 µM; in test [2] it was 5.41 µM.
`COC(=O)Cn1c(C)c(-c2cccc(OCc3ccccc3)c2)c2ccccc21` [Inz-56]: the IC50 in test [1] and in test [2] was over 64 µM in each case.
With `COC(=O)Cn1nc(-c2ccccc2C)c2ccccc21` [Inz-17], the IC50 was over 64 µM in test [1] and 3.37 µM in test [2].
Take `COC(=O)Cn1nc(-c2ccccc2O)c2ccccc21` [Inz-52]: the IC50 in test [1] is over 64 µM; in test [2] it was 3.57 µM.
Consider `Cn1nnc(Cn2nc(-c3ccccc3)c3ccccc32)n1` [Inz-34], for which the IC50 in test [1] is over 64 µM; in test [2], 22.6 µM.
On to `Fc1ccc(C(F)(F)F)cc1-c1nn(Cc2cnccn2)c2ccncc12` [Inz-98], for which the half-maximal inhibitory concentration (IC50) in test [1] was over 64 µM; in test [2] it was 20.4 µM.
For the compound `COC(=O)Cn1nc(-c2ccccc2OC)c2ccccc21` [Inz-16], the IC50 was over 64 µM in test [1] and 22.9 µM in test [2].
As for `Cn1nc(-c2cccc(OCc3ccccc3)c2)c2ccccc21` [Inz-44], the IC50 in test [1] and in test [2] was over 64 µM in each case.
Consider `COC(=O)Cn1nc(-c2ccccc2C(F)(F)F)c2ccccc21` [Inz-51], for which the IC50 in test [1] was over 64 µM; in test [2], 50.5 µM.
`Cc1nc(Cn2nc(-c3ccccc3)c3ccccc32)no1` [Inz-77]: the IC50 in test [1] and in test [2] was over 64 µM throughout.
On to `COC(=O)Cn1nc(-c2cccc(OCCCC3CCCCC3)c2)c2ccccc21` [Inz-76], for which the IC50 came to 5.46 µM in test [1] and 1.8 µM in test [2].
Regarding `COC(=O)Cn1nc(-c2cc(C(F)(F)F)ccc2F)c2c(C)cccc21` [Inz-23], the figures for the IC50 in test [1] and in test [2] were over 64 µM and 10.8 µM, respectively.
For `COC(=O)Cn1nc(-c2cccc(F)c2)c2ccccc21` [Inz-70], the IC50 in test [1] was over 64 µM; in test [2], 5.91 µM.
In the case of `COC(=O)Cn1nc(-c2cccc(OC)c2)c2ccccc21` [Inz-6], the IC50 in test [1] stood at 28.4 µM; in test [2], 1.52 µM.
As for `COC(=O)Cn1nc(-c2cc(F)ccc2F)c2ccccc21` [Inz-61], the IC50 was over 64 µM in test [1] and 0.891 µM in test [2].
On to `COC(=O)Cn1nc(-c2cc(OCCCC3CCCCC3)ccc2F)c2ccccc21` [Inz-81], for which the IC50 in test [1] came to 2.43 µM; in test [2], 0.129 µM.
Taken in the same sequence, the figures for `CCC(=O)Cn1nc(-c2cccc(OCc3ccccc3)c2)c2ccccc21` [Inz-43] were over 64 µM and 22.8 µM.
As to `CCOc1cccc(-c2nn(CC(=O)OC)c3ccccc23)c1` [Inz-40], the IC50 in test [1] worked out at 28.1 µM; in test [2] it was 0.981 µM.
Take `COC(=O)Cn1nc(-c2c(F)cccc2F)c2ccccc21` [Inz-59]: the IC50 in test [1] was over 64 µM; in test [2] it was 2.36 µM.
Regarding `COC(=O)Cn1ccc(-c2cccc(OCc3ccccc3)c2)n1` [Inz-48], the IC50 in test [1] and in test [2] was over 64 µM throughout.
In the case of `COC(=O)Cn1nc(-c2cc(F)ccc2C)c2ccccc21` [Inz-62], the IC50 in test [1] was over 64 µM; in test [2], 4.7 µM.
On the same counts, the results for `COC(=O)Cn1nc(-c2cccc(C#N)c2)c2ccccc21` [Inz-11] are over 64 µM and 10.1 µM.
As for `FC(F)Cn1nc(-c2ccccc2)c2ccccc21` [Inz-89], the IC50 in test [1] and in test [2] was over 64 µM each time.
For the compound `CON(C)C(=O)Cn1nc(-c2ccccc2)c2ccccc21` [Inz-26], the IC50 in test [1] and in test [2] was over 64 µM throughout.
Take `COC(=O)Cn1nc(-c2ccc(CCc3ccccc3)cc2)c2ccccc21` [Inz-53]: the IC50 in test [1] was over 64 µM; in test [2] it was 43.4 µM.
As for `COC(=O)Cn1nc(-c2cccc(OCC3CCCCC3)c2)c2ccccc21` [Inz-9], the IC50 in test [1] worked out at 0.889 µM; in test [2], 0.087 µM.
Take `Fc1ccc(C(F)(F)F)cc1-c1nn(Cc2cnccn2)c2ccccc12` [Inz-94]: the IC50 in test [1] stood at 35.1 µM; in test [2], 0.449 µM.
For `Cc1cccc2c(-c3cc(C(F)(F)F)ccc3F)nn(Cc3nnn(C)n3)c12` [Inz-5], the results for the IC50 in test [1] and in test [2] were 6.51 µM and 0.289 µM, respectively.
On to `c1ccc(-c2nn(Cc3cncnc3)c3ccccc23)cc1` [Inz-93], for which the IC50 in test [1] and in test [2] was over 64 µM in each case.
On to `COC(=O)Cn1nc(-c2ccccc2OCc2ccccc2)c2ccccc21` [Inz-55], for which the IC50 in test [1] and in test [2] was over 64 µM throughout.
On to `COC(=O)Cn1nc(-c2cccc(O)c2)c2ccccc21` [Inz-41], for which the IC50 in test [1] is over 64 µM; in test [2], 44.1 µM.
For `COC(=O)Cn1nc(-c2cccc(OCCN(C)C)c2)c2ccccc21` [Inz-63], the IC50 in test [1] was over 64 µM; in test [2] it was 35.2 µM.
On the same counts, the results for `COC(=O)Cn1ncc2ccccc21` [Inz-49] are over 64 µM and over 64 µM.
Consider `COC(=O)Cn1nc(-c2ccccc2)c2cccc(C)c21` [Inz-3], for which the values for the IC50 in test [1] and in test [2] were 21.3 µM and 1.01 µM, respectively.
On the same counts, the results for `CS(=O)(=O)Cn1nc(-c2ccccc2)c2ccccc21` [Inz-27] are over 64 µM and over 64 µM.
Take `COC(=O)Cc1nn(-c2ccccc2)c2ccccc12` [Inz-104]: the results for the IC50 in test [1] and in test [2] were over 64 µM and 17.6 µM, respectively.
As to `COC(=O)Cn1nc(-c2cc(C(F)(F)F)ccc2F)c2cc(C(F)(F)F)ccc21` [Inz-21], the IC50 in test [1] and in test [2] was over 64 µM in each case.
Turning to `c1ccc(COc2cccc(-c3n[nH]c4ccccc34)c2)cc1` [Inz-46], the IC50 in test [1] and in test [2] was over 64 µM each time.
For `Nc1ccc2c(-c3cc(C(F)(F)F)ccc3F)nn(Cc3cnccn3)c2c1` [Inz-100], the IC50 in test [1] is over 64 µM; in test [2], 5.48 µM.
Consider `N#Cc1ncccc1Cn1nc(-c2ccccc2)c2ccccc21` [Inz-91], for which the IC50 in test [1] and in test [2] was over 64 µM in each case.
In the case of `COC(=O)Cn1nc(-c2cc(C(F)(F)F)ccc2F)c2cccc(C)c21` [Inz-4], the IC50 was 1.04 µM in test [1] and 0.026 µM in test [2].
